Laboratory results from PubChem BioAssay (NCI).
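Grown in 96-well plates, cells were treated for 48 hours with each compound at five concentrations. Insufficient inhibition: endpoint recorded as highest concentration tested. TGI is the concentration that stops growth completely.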

What was measured:
Experiment in all cases: NCI anticancer screen, dose series, 48 h
786-0 renal = test system: 786-0 renal
A498 renal = test system: A498 renal
A549 NSCLC = test system: A549 NSCLC
ACHN renal = test system: ACHN renal
CAKI-1 renal = test system: CAKI-1 renal
CCRF-CEM leukemia = test system: CCRF-CEM leukemia
COLO 205 colon = test system: COLO 205 colon
DLD-1 colon = test system: DLD-1 colon
DMS 114 small cell lung = test system: DMS 114 small cell lung
DMS 273 small cell lung = test system: DMS 273 small cell lung
EKVX NSCLC = test system: EKVX NSCLC
HCC-2998 colon = test system: HCC-2998 colon
HCT-116 colon = test system: HCT-116 colon
HCT-15 colon = test system: HCT-15 colon
HL-60(TB) leukemia = test system: HL-60(TB) leukemia
HOP-62 NSCLC = test system: HOP-62 NSCLC
HT29 colon = test system: HT29 colon
IGROV1 ovarian = test system: IGROV1 ovarian
K-562 leukemia = test system: K-562 leukemia
KM12 colon = test system: KM12 colon
KM20L2 colon = test system: KM20L2 colon
LOX IMVI melanoma = test system: LOX IMVI melanoma
LXFL 529 NSCLC = test system: LXFL 529 NSCLC
M14 melanoma = test system: M14 melanoma
M19-MEL melanoma = test system: M19-MEL melanoma
MALME-3M melanoma = test system: MALME-3M melanoma
MOLT-4 leukemia = test system: MOLT-4 leukemia
NCI-H226 lung = test system: NCI-H226 lung
NCI-H23 lung = test system: NCI-H23 lung
NCI-H522 lung = test system: NCI-H522 lung
OVCAR-4 ovarian = test system: OVCAR-4 ovarian
OVCAR-8 ovarian = test system: OVCAR-8 ovarian
RPMI-8226 leukemia = test system: RPMI-8226 leukemia
RXF 393 renal = test system: RXF 393 renal
RXF-631 renal = test system: RXF-631 renal
SF-268 CNS = test system: SF-268 CNS
SF-295 CNS = test system: SF-295 CNS
SF-539 CNS = test system: SF-539 CNS
SK-MEL-2 melanoma = test system: SK-MEL-2 melanoma
SK-MEL-5 melanoma = test system: SK-MEL-5 melanoma
SN12C renal = test system: SN12C renal
SNB-19 CNS = test system: SNB-19 CNS
SNB-75 CNS = test system: SNB-75 CNS
SR leukemia = test system: SR leukemia
SW-620 colon = test system: SW-620 colon
TK-10 renal = test system: TK-10 renal
U251 CNS = test system: U251 CNS
UACC-257 melanoma = test system: UACC-257 melanoma
UACC-62 melanoma = test system: UACC-62 melanoma
UO-31 renal = test system: UO-31 renal
XF 498 CNS = test system: XF 498 CNS
BT-549 breast = test system: BT-549 breast
DU-145 prostate = test system: DU-145 prostate
HOP-92 NSCLC = test system: HOP-92 NSCLC
HS 578T breast = test system: HS 578T breast
MCF7 breast = test system: MCF7 breast
MDA-MB-231 breast = test system: MDA-MB-231 breast
MDA-MB-435 = test system: MDA-MB-435
MDA-N = test system: MDA-N
NCI-H460 lung = test system: NCI-H460 lung
NCI/ADR-RES ovarian = test system: NCI/ADR-RES ovarian
OVCAR-3 ovarian = test system: OVCAR-3 ovarian
OVCAR-5 ovarian = test system: OVCAR-5 ovarian
PC-3 prostate = test system: PC-3 prostate
SK-MEL-28 melanoma = test system: SK-MEL-28 melanoma
SK-OV-3 ovarian = test system: SK-OV-3 ovarian
T-47D breast = test system: T-47D breast
HOP-18 NSCLC = test system: HOP-18 NSCLC
SNB-78 CNS = test system: SNB-78 CNS

Measured: TGI

CNS(=O)(=O)NN(C)S(=O)(=O)c1ccc(OC)cc1
not listed: BT-549 breast | DU-145 prostate | HOP-92 NSCLC | HS 578T breast | MCF7 breast | MDA-MB-231 breast | MDA-MB-435 | MDA-N | NCI-H460 lung | NCI/ADR-RES ovarian | OVCAR-3 ovarian | OVCAR-5 ovarian | PC-3 prostate | SK-MEL-28 melanoma | SK-OV-3 ovarian | T-47D breast | HOP-18 NSCLC | SNB-78 CNS
> 100 µM: all other assays above

CC1c2ccccc2Cn2cc3c(c21)C(=O)c1cccc(OP(=O)(O)OCc2ccccc2)c1C3=O (stereo not drawn)
> 77.3 µM: HL-60(TB) leukemia
not listed: DMS 273 small cell lung | M19-MEL melanoma | HOP-18 NSCLC | SNB-78 CNS
> 100 µM: all other assays above

CCOC(=O)C1=NC(c2ccccc2)(c2ccccc2)OC1=C(Cl)Cl
57.4 µM: HCC-2998 colon
34.8 µM: HL-60(TB) leukemia
12.5 µM: RXF 393 renal
not listed: DMS 114 small cell lung | DMS 273 small cell lung | SK-MEL-2 melanoma | XF 498 CNS | BT-549 breast | DU-145 prostate | HS 578T breast | MCF7 breast | MDA-MB-231 breast | MDA-MB-435 | MDA-N | NCI/ADR-RES ovarian | PC-3 prostate | T-47D breast
> 100 µM: all other assays above

O=c1c2ccccc2nc(-c2ccccc2Cl)n1NCC1(O)OCC(O)C(O)C1O (stereo not drawn)
not listed: DLD-1 colon | HCC-2998 colon | HOP-62 NSCLC | IGROV1 ovarian | NCI-H226 lung | BT-549 breast | DU-145 prostate | HOP-92 NSCLC | HS 578T breast | MCF7 breast | MDA-MB-231 breast | MDA-MB-435 | MDA-N | NCI/ADR-RES ovarian | PC-3 prostate | T-47D breast | HOP-18 NSCLC
> 100 µM: all other assays above
